ChEMBL document CHEMBL4422615, “Novel non-xanthine antagonist of the A2B adenosine receptor: From HTS hit to lead structure” (Eur J Med Chem, 2019)

Legend:
Homo sapiens [1] = species: Homo sapiens; experiment: Selectivity index, ratio of IC50 for human A3 adenosine receptor expressed in HEK293 cell membranes to IC50 for human A2B adenosine receptor expressed in HEK293 cell membranes; type: cell-based
Homo sapiens [2] = species: Homo sapiens; experiment: Selectivity index, ratio of IC50 for human A1 adenosine receptor expressed in CHO cell membranes to IC50 for human A2B adenosine receptor expressed in HEK293 cell membranes; type: cell-based
Homo sapiens [3] = species: Homo sapiens; experiment: Selectivity index, ratio of IC50 for human A2A adenosine receptor expressed in HEK293 cell membranes to IC50 for human A2B adenosine receptor expressed in HEK293 cell membranes; type: cell-based
Adenosine receptor A2b = biological target: T1, Adenosine receptor A2b (Homo sapiens, UniProt P29275); experiment: Displacement of [3H]DPCPX from human A2B adenosine receptor expressed in HEK293 cell membranes after 60 mins by radioligand displacement assay
T1 sequence (P29275 whole entry): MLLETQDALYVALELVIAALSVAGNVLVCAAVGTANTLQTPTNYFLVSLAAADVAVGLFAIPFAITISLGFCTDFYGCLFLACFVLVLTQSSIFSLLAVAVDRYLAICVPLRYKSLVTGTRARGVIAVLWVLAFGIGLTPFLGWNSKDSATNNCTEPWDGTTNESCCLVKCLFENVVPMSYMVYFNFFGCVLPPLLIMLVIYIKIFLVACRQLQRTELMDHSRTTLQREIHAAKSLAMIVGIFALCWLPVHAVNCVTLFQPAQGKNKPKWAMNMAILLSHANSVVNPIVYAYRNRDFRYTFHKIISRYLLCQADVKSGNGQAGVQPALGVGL

[4] = Intrinsic clearance in rat hepatocytes by MS/MS analysis; type: ADME, cell-based, Hepatocyte; conditions: read-out: CLH (converted)

| SMILES | Ratio IC50 (Homo sapiens [1]) | Ratio IC50 (Homo sapiens [2]) | Ratio IC50 (Homo sapiens [3]) | IC50 (Adenosine receptor A2b) | predicted hepatic clearance [4] |
| --- | --- | --- | --- | --- | --- |
| CCN(CCO)C(=O)c1sc2c(c1C)c(=O)n(CC)c(=O)n2CCC(F)(F)F | 130 | 13 | 21 | 50 nM | 40 mL/min/kg |
| COCCn1c(=O)n(CCc2ccccc2)c(=O)c2c(C)c(Cc3c[nH]c(C)n3)sc21 | 750 | 110 | 510 | 8.8 nM | 61.7 mL/min/kg |
| COCCn1c(=O)n(CC(F)(F)c2ccccc2)c(=O)c2c(C)csc21 | – | 9 | 25 | 440 nM | 66.7 mL/min/kg |
| COCCn1c(=O)n(CCc2ccccc2)c(=O)c2c(C)c(C(O)c3ccccc3)sc21 (stereo not drawn) | 230 | 1 | 21 | 30 nM | 68.3 mL/min/kg |
| COCCn1c(=O)n(CCc2ccccc2)c(=O)c2c3c(sc21)CCCC3 | 13 | 3 | – | 490 nM | – |
| COCCn1c(=O)n(CCc2ccccc2)c(=O)c2c(C)c(C(O)C3CC3)sc21 (stereo not drawn) | 480 | 10 | 11 | 14 nM | 68.3 mL/min/kg |
| COCCn1c(=O)n(CCc2ccccc2)c(=O)c2c(C)c(Cl)sc21 | – | 3 | 3 | 3300 nM | – |
| COCCn1c(=O)n(CCc2ccccc2)c(=O)c2c(C)c(C(=O)N3CCCC3)sc21 | – | – | – | 260 nM | – |
| COCCn1c(=O)[nH]c(=O)c2c(C)csc21 | 0.61 to 1 | 1 | 1 | > 10000 nM | 31.7 mL/min/kg |
| COCCn1c(=O)n(CCc2ccccc2)c(=O)c2c(C)c(C(=O)O)sc21 | – | 5 | 5 | 2100 nM | 55 mL/min/kg |
| Cc1csc2c1c(=O)n(CCc1ccccc1)c(=O)n2Cc1nc2cc(S(N)(=O)=O)ccc2o1 | 6 | 0.83 | 2 | 1100 nM | – |
| Cc1[nH]cnc1Cn1c(=O)n(CCc2ccccc2)c(=O)c2c(C)csc21 | 2 | 3 | 3 | 3400 nM | 56.7 mL/min/kg |
| COCCn1c(=O)n(CCc2cccnc2)c(=O)c2c(C)csc21 | 23 | 39 | 29 | 280 nM | 61.7 mL/min/kg |
| COCCn1c(=O)n(CCc2ccccc2)c(=O)c2c(C)c(C)sc21 | 33 | 12 | – | 200 nM | – |
| CCn1c(=O)c2c3c(sc2n(CCOC)c1=O)CCCC3 | 17 | 5 | 3 | 390 nM | – |
| COCCn1c(=O)n(CCC2CCOCC2)c(=O)c2c(C)csc21 | 1 | 1 | 1 | > 10000 nM | – |
| COCCn1c(=O)n(CC=C(F)F)c(=O)c2c(C)csc21 | – | 2 | 2 | 4900 nM | – |
| COCCn1c(=O)n(CCc2ccccc2)c(=O)c2c(C)c(C(=O)C3CC3)sc21 | 8 | 0.57 | 1 | 790 nM | – |
| COCCn1c(=O)n(CCc2ccccc2)c(=O)c2c(C)c(COC3CCCC3)sc21 | 27 | 4 | 7 | 250 nM | – |
| CCn1c(=O)c2c(C)c(C)sc2n(CCOC)c1=O | 15 | 9 | 8 | 440 nM | – |
| Cc1csc2c1c(=O)n(CCc1ccccc1)c(=O)n2CCC(F)(F)F | 120 | 25 | 81 | 56 nM | 66.7 mL/min/kg |
| COCCn1c(=O)n(CCc2ccccc2)c(=O)c2c(C)c(C(C)(O)C3CC3)sc21 (stereo not drawn) | 45 | 2 | 6 | 150 nM | 66.7 mL/min/kg |
| Cc1csc2c1c(=O)n(CCc1ccccc1F)c(=O)n2CCC(F)(F)F | 91 | 36 | 86 | 73 nM | 68.3 mL/min/kg |
| COCCn1c(=O)n(CCc2ccccc2)c(=O)c2c(C)c(C(=O)N3CC(O)C3)sc21 | – | – | – | 200 nM | 61.7 mL/min/kg |
| Cc1csc2c1c(=O)n(CCc1ccccc1)c(=O)n2CC1CCCO1 (racemic) | 13 | 13 | 21 | – | – |
| CCn1c(=O)c2c3c(sc2n(CCOC)c1=O)CCC3 | 30 | 18 | 11 | 220 nM | – |
| COCCn1c(=O)n(CCc2ccccc2)c(=O)c2c(C)c(C(F)(F)c3ccccc3)sc21 | 2 | 0.36 | 3 | 2800 nM | – |
| Cc1csc2c1c(=O)n(CCc1cccnc1)c(=O)n2CCC(F)(F)F | 120 | 40 | 21 | 55 nM | 66.7 mL/min/kg |

| SMILES | Ratio IC50 (Homo sapiens [1]) | Ratio IC50 (Homo sapiens [2]) | Ratio IC50 (Homo sapiens [3]) | IC50 (Adenosine receptor A2b) | predicted hepatic clearance [4] |
| --- | --- | --- | --- | --- | --- |
| COCCn1c(=O)n(CCc2ccccc2)c(=O)c2c(C)c(C(C)(O)c3cncn3C)sc21 (stereo not drawn) | 6 | 2 | 3 | 1200 nM | – |
| COCCn1c(=O)n(CCc2ccccc2)c(=O)c2c3c(sc21)CCC3 | 69 | 16 | – | 97 nM | – |
| CCn1c(=O)c2c(C)csc2n(CCOC)c1=O | 10 | 6 | 11 | 640 nM | – |
| COCCn1c(=O)n(CCc2ccccc2)c(=O)c2c(C)csc21 | 22 | 9 | 37 | 300 nM | 66.7 mL/min/kg |
| COCCn1c(=O)n(CCc2ccccc2F)c(=O)c2c(C)csc21 | – | – | – | 210 nM | – |
| COCCn1c(=O)n(CCc2ccccc2)c(=O)c2c(C)c(C(=O)N(C)OC)sc21 | 17 | 9 | 4 | 390 nM | – |
| Cc1csc2c1c(=O)n(CCc1ccccc1)c(=O)n2CC(=O)Nc1cc(Cl)ccc1C(=O)O | – | – | – | > 10000 nM | – |
| COCCn1c(=O)n(CCc2ccccc2)c(=O)c2c(C)c(Cc3ccccc3)sc21 | – | 0.19 | 4 | 540 nM | – |
| Cc1csc2[nH]c(=O)n(CCc3ccccc3)c(=O)c12 | 14 | 6 | – | 480 nM | 58.3 mL/min/kg |
| COCCn1c(=O)n(CCc2ccccc2)c(=O)c2c(C)c(CN3CCCC3)sc21 | – | – | – | 200 nM | 61.7 mL/min/kg |
| Cc1csc2c1c(=O)n(CCc1ccccc1)c(=O)n2CC1CCCO1 (stereo in doubt; 7) | 37 | 46 | 62 | – | – |
| COCCn1c(=O)n(CC(C)(C)C)c(=O)c2c(C)csc21 | 4 | 7 | 7 | 1600 nM | – |
| COCCn1c(=O)n(CC2(c3ccccc3)CC2)c(=O)c2c(C)csc21 | – | 1 | 7 | 1500 nM | – |
| COCCn1c(=O)n(CCc2ccccc2)c(=O)c2c(C)c(CO)sc21 | 43 | 11 | 40 | 150 nM | – |
| COCCn1c(=O)n(CCc2ccccc2)c(=O)c2c(C)c(-c3ccccc3)sc21 | 1 | 0.65 | 2 | 4900 nM | – |
| Cc1csc2c1c(=O)n(CCc1ccccc1)c(=O)n2CCc1ccc(S(N)(=O)=O)cc1 | 4 | 2 | 6 | 1700 nM | – |
| Cc1csc2c1c(=O)n(CCc1ccccc1)c(=O)n2Cc1ncc[nH]1 | 51 | 11 | 35 | 130 nM | – |
| COCCn1c(=O)n(CCN2CCS(=O)(=O)CC2)c(=O)c2c(C)csc21 | 1 | 1 | 1 | > 10000 nM | – |
| Cc1csc2c1c(=O)n(CCc1ccccc1)c(=O)n2CC#N | – | – | – | 130 nM | – |
| COCCn1c(=O)n(CCc2ccccc2)c(=O)c2c(C)c(C(=O)c3ccccc3)sc21 | – | 0.6 | 3 | 2300 nM | – |
| Cc1csc2c1c(=O)n(CCc1ccccc1)c(=O)n2CCF | – | – | – | 135 nM | – |
| COCCn1c(=O)n(CCc2ccccc2)c(=O)c2c(C)c(CN3CCOCC3)sc21 | 9 | 1 | 7 | 760 nM | – |
| CCOC(=O)c1sc2c(c1C)c(=O)n(CCc1ccccc1)c(=O)n2CCOC | 4 | 2 | 6 | 1700 nM | – |
| COCCn1c(=O)n(Cc2ccccc2)c(=O)c2c(C)csc21 | 1 | 1 | 1 | > 10000 nM | – |
| COCCn1c(=O)n(CCc2ccccc2)c(=O)c2c(C)c(C(=O)c3cn(C)cn3)sc21 | 35 | 4 | 9 | 190 nM | – |
| COCCn1c(=O)n(CCc2ccccc2)c(=O)c2ccsc21 | 1 | 2 | 2 | 4700 nM | – |
| Cc1csc2c1c(=O)n(CCc1ccccc1)c(=O)n2Cc1nccn1C | 46 | 4 | 21 | 145 nM | – |
